Assay results taken from PMC11157767 (Molecular Cancer, 2024).

Test system: TRIM24-MET-i cells
Procedure: The number of unique and shared differentially expressed genes between each comparison are shown in parentheses. A linear regression line is depicted along with Pearson’s correlation coefficient (r) and its associated p-value. […] Common negatively enriched genesets between all three comparisons are in bold. c, Heatmaps showing expression of Hallmark_Myc_Target_v1/2 genes for indicated cells and treatment comparisons (TRIM-MET cells were treated in vitro, TFG-MET cells in vivo). Select leading edge genes from GSEA are labeled.

## C[C@@H](Oc1cc(-c2cnn(C3CCNCC3)c2)cnc1N)c1c(Cl)ccc(F)c1Cl [Crizotinib]
  ES GOMF_CATALYTIC_ACTIVITY_ACTING_ON_A_TRNA: -0.6982
  ES GOMF_GTPASE_ACTIVITY: -0.4838
  ES GOMF_GUANYL_NUCLEOTIDE_BINDING: -0.4485
  ES GOMF_HYDROLASE_ACTIVITY_ACTING_ON_ACID_ANHYDRIDES: -0.386
  ES GOMF_RRNA_BINDING: -0.7423
  NES GOMF_CATALYTIC_ACTIVITY_ACTING_ON_A_TRNA: -2.2819
  NES GOMF_GTPASE_ACTIVITY: -1.922
  NES GOMF_GUANYL_NUCLEOTIDE_BINDING: -1.812
  NES GOMF_HYDROLASE_ACTIVITY_ACTING_ON_ACID_ANHYDRIDES: -1.664
  NES GOMF_RRNA_BINDING: -2.231
GSEA v. DMSO
  ES GARY_CD5_TARGETS_DN: -0.652
  ES HALLMARK_ADIPOGENESIS: -0.2603
  ES HALLMARK_ALLOGRAFT_REJECTION: -0.4058
  ES HALLMARK_ANDROGEN_RESPONSE: -0.4828
  ES HALLMARK_ANGIOGENESIS: -0.5624
  ES HALLMARK_APICAL_JUNCTION: -0.293
  ES HALLMARK_APICAL_SURFACE: 0.4986
  ES HALLMARK_APOPTOSIS: -0.4398
  ES HALLMARK_CHOLESTEROL_HOMEOSTASIS: 0.2795
  ES HALLMARK_COAGULATION: -0.4513
  ES HALLMARK_COMPLEMENT: -0.5126
  ES HALLMARK_DNA_REPAIR: -0.2541
  ES HALLMARK_E2F_TARGETS: -0.2746
  ES HALLMARK_EPITHELIAL_MESENCHYMAL_TRANSITION: -0.3755
  ES HALLMARK_ESTROGEN_RESPONSE_EARLY: -0.4277
  ES HALLMARK_ESTROGEN_RESPONSE_LATE: -0.3421
  ES HALLMARK_G2M_CHECKPOINT: -0.3012
  ES HALLMARK_GLYCOLYSIS: -0.404
  ES HALLMARK_HEDGEHOG_SIGNALING: -0.4466
  ES HALLMARK_HYPOXIA: -0.3351
  ES HALLMARK_IL2_STAT5_SIGNALING: -0.5189
  ES HALLMARK_IL6_JAK_STAT3_SIGNALING: -0.4268
  ES HALLMARK_INFLAMMATORY_RESPONSE: -0.4921
  ES HALLMARK_INTERFERON_ALPHA_RESPONSE: 0.2583
  ES HALLMARK_INTERFERON_GAMMA_RESPONSE: -0.3093
  ES HALLMARK_KRAS_SIGNALING_DN: 0.3288
  ES HALLMARK_KRAS_SIGNALING_UP: -0.4922
  ES HALLMARK_MITOTIC_SPINDLE: -0.2568
  ES HALLMARK_MTORC1_SIGNALING: -0.5236
  ES HALLMARK_MYC_TARGETS_V1: -0.6267
  ES HALLMARK_MYC_TARGETS_V2: -0.805
  ES HALLMARK_MYOGENESIS: -0.2282
  ES HALLMARK_NOTCH_SIGNALING: -0.4408
  ES HALLMARK_OXIDATIVE_PHOSPHORYLATION: -0.4296
  ES HALLMARK_P53_PATHWAY: -0.2784
  ES HALLMARK_PANCREAS_BETA_CELLS: 0.2429
  ES HALLMARK_PEROXISOME: 0.273
  ES HALLMARK_PI3K_AKT_MTOR_SIGNALING: -0.3625
  ES HALLMARK_PROTEIN_SECRETION: -0.4081
  ES HALLMARK_TGF_BETA_SIGNALING: -0.5775
  ES HALLMARK_TNFA_SIGNALING_VIA_NFKB: -0.5914
  ES HALLMARK_UNFOLDED_PROTEIN_RESPONSE: -0.6237
  ES HALLMARK_UV_RESPONSE_DN: -0.3089
  ES HALLMARK_UV_RESPONSE_UP: -0.4076
  ES HALLMARK_WNT_BETA_CATENIN_SIGNALING: -0.3432
  ES KRIGE_RESPONSE_TO_TOSEDOSTAT_6HR_DN: -0.6237
  ES KRIGE_RESPONSE_TO_TOSEDOSTAT_24HR_DN: -0.6444
  ES LEE_BMP2_TARGETS_DN: -0.6669
  ES WEI_MYCN_TARGETS_WITH_E_BOX: -0.6994
  NES GARY_CD5_TARGETS_DN: -2.697
  NES HALLMARK_ADIPOGENESIS: -0.9905
  NES HALLMARK_ALLOGRAFT_REJECTION: -1.519
  NES HALLMARK_ANDROGEN_RESPONSE: -1.666
  NES HALLMARK_ANGIOGENESIS: -1.626
  NES HALLMARK_APICAL_JUNCTION: -1.114
  NES HALLMARK_APICAL_SURFACE: 1.572
  NES HALLMARK_APOPTOSIS: -1.646
  NES HALLMARK_CHOLESTEROL_HOMEOSTASIS: 0.993
  NES HALLMARK_COAGULATION: -1.59
  NES HALLMARK_COMPLEMENT: -1.9374
  NES HALLMARK_DNA_REPAIR: -0.9367
  NES HALLMARK_E2F_TARGETS: -1.051
  NES HALLMARK_EPITHELIAL_MESENCHYMAL_TRANSITION: -1.427
  NES HALLMARK_ESTROGEN_RESPONSE_EARLY: -1.626
  NES HALLMARK_ESTROGEN_RESPONSE_LATE: -1.298
  NES HALLMARK_G2M_CHECKPOINT: -1.145
  NES HALLMARK_GLYCOLYSIS: -1.5363
  NES HALLMARK_HEDGEHOG_SIGNALING: -1.301
  NES HALLMARK_HYPOXIA: -1.274
  NES HALLMARK_IL2_STAT5_SIGNALING: -1.973
  NES HALLMARK_IL6_JAK_STAT3_SIGNALING: -1.432
  NES HALLMARK_INFLAMMATORY_RESPONSE: -1.856
  NES HALLMARK_INTERFERON_ALPHA_RESPONSE: 0.9765
  NES HALLMARK_INTERFERON_GAMMA_RESPONSE: -1.175
  NES HALLMARK_KRAS_SIGNALING_DN: 1.322
  NES HALLMARK_KRAS_SIGNALING_UP: -1.8648
  NES HALLMARK_MITOTIC_SPINDLE: -0.9855
  NES HALLMARK_MTORC1_SIGNALING: -2.004
  NES HALLMARK_MYC_TARGETS_V1: -2.398
  NES HALLMARK_MYC_TARGETS_V2: -2.6016
  NES HALLMARK_MYOGENESIS: -0.867
  NES HALLMARK_NOTCH_SIGNALING: -1.2742
  NES HALLMARK_OXIDATIVE_PHOSPHORYLATION: -1.635
  NES HALLMARK_P53_PATHWAY: -1.06
  NES HALLMARK_PANCREAS_BETA_CELLS: 0.7197
  NES HALLMARK_PEROXISOME: 1.047
  NES HALLMARK_PI3K_AKT_MTOR_SIGNALING: -1.259
  NES HALLMARK_PROTEIN_SECRETION: -1.414
  NES HALLMARK_TGF_BETA_SIGNALING: -1.842
  NES HALLMARK_TNFA_SIGNALING_VIA_NFKB: -2.258
  NES HALLMARK_UNFOLDED_PROTEIN_RESPONSE: -2.204
  NES HALLMARK_UV_RESPONSE_DN: -1.132
  NES HALLMARK_UV_RESPONSE_UP: -1.522
  NES HALLMARK_WNT_BETA_CATENIN_SIGNALING: -1.0353
  NES KRIGE_RESPONSE_TO_TOSEDOSTAT_6HR_DN: -2.692
  NES KRIGE_RESPONSE_TO_TOSEDOSTAT_24HR_DN: -2.791
  NES LEE_BMP2_TARGETS_DN: -2.874
  NES WEI_MYCN_TARGETS_WITH_E_BOX: -3.001
GSEA, v. DMSO
  ES GOBP_NCRNA_PROCESSING: -0.7604
  ES GOBP_RIBONUCLEOPROTEIN_COMPLEX_BIOGENESIS: -0.7216
  ES GOBP_RIBOSOME_BIOGENESIS: -0.7916
